Experimental data as given in patent publication US4943573A, “Imidazo[4,5-b]quinolinyloxyalkanoic acid amides with enhanced water solubility” (Bristol-Myers Squibb Company, priority 1989, dated 1990).
Read-outs that look alike come from different tables or passages of the source.

Columns and labels:
[1] = biological target: T1, cyclic AMP phosphodiesterase (PDE) enzyme obtained from human platelets (Homo sapiens, UniProt Q14432); experiment: inhibition of cyclic AMP phosphodiesterase; assay type: biochemical; conditions: human platelet PDE
T1 construct: phosphodiesterase (PDE) enzyme obtained from human platelets; from tissue; host or cells: human platelets
Method: This assay is carried out essentially as described by Thompson, et al., Methods in Enzymology, 38, […] (1974). Briefly, tritium labeled cyclic adenosine monophosphate (cAMP) is incubated with a phosphodiesterase (PDE) enzyme obtained from human platelets which converts a portion of the cAMP to 5'AMP in culture tubes. This reaction is terminated by submerging the tubes in a boiling water bath after which they are placed on ice and an aliquot of snake venom is added to each tube. This, during a second incubation, converts the 5'AMP to adenosine. Ion exchange resin is added to bind the remaining cyclic AMP. The tubes are centrifuged to sediment the resin and a portion of the clear supernatent (which contains radioactive adenosine) is counted in a liquid scintillation counter. The cAMP phosphodiesterase inhibition activity of a test agent is determined by pre-incubating the PDE enzyme preparation with the test agent. Dose response values are obtained and activity of the test agent reported as the molar (M) concentration of the test agent inhibition 50% of the PDE activity (IC50 s).

ferrets = experiment: in vivo inotropic activity in anesthetized ferrets (hemodynamic parameters and right ventricular contractile force); set-up: species or system ferret; conditions: for change in vivo at 3 mg/kg: Mustela putorius, intraduodenal, 1 h, 3 mg/kg intraduodenally, monitored 60 minutes
Method: This test is […] out in ferrets as follows. Fasted anesthetized ferrets are instrumented to study hemodynamic parameters as well as right ventricular contractile force (RVCF) using a Walton-Brodie open strain gauge arch. Drugs are administered intraduodenally as solutions in DMSO (1 mL or less) and effects on myocardial contractile force and other parameters are monitored for 60 minutes after dosing. Changes in contractile force in response to drug treatment are expressed in terms of percent change from predose control.

[2] = tested on: Biolaser-induced thrombosis / platelet aggregation in rabbit ear; experiment: in vivo inhibition of biolaser-induced platelet aggregation in the rabbit ear (Biolaser Model); set-up: species or system rabbit (English, half-lop); conditions: for inhibition in vivo at 0.1 mg/kg: Oryctolagus cuniculus, Platelet, po, 0.1 mg/kg orally, 2 hours
Method: Transparent ear chambers were chronically implanted in adult, English, half-lop rabbits. The animals were conditioned to lie quietly in a supine position. Localized microvascular injury was induced by focusing a single pulse ruby laser beam through a microscope into the lumen of a vessel […] in diameter. This evoked the formation of a small thrombus consisting of platelets accumulated around a core of one or two damaged red cells. Thrombi areas were determined using computerized planimetry. The mean thrombus area (μM^2) obtained for 10 trials in each rabbit served as the control value. Subsequently, the test compound was administered orally and 2 hours later a second series of laser-induced thrombi trials were performed. Drug activity was evaluated by comparing pre-and post-dose mean thrombus areas. Activity determined at other time points beyond 2 hours establish duration of action.

[3] = tested on: ADP-induced platelet aggregation; experiment: in vitro inhibition of ADP-induced platelet aggregation (aggregometer method of Born, platelet rich plasma); assay type: cell-based; conditions: human platelet rich plasma; ADP 2.5 mcg/ml; as the dihydrochloride salt; read-out: EC50 versus ADP (inhibition of ADP-induced platelet aggregation)
Method: The aggregometer method of Born^1, as modified by Mustard, et al.^2 was used to assess the in vitro activity of the various compounds as to inhibition of adenosine diphosphate (ADP) and collagen-induced platelet aggregation. Platelet rich plasma (PRP) was separated by centrifugation from citrated (3.8 percent) human blood. ADP in final concentration of 2.5 mcg/ml or 0.05 ml of a collagen suspension prepared according to the method described by Evans, et al.^3 was used to induce aggregation. The various Evans, et al. compounds tested were dissolved in dimethylsulfoxide (DMSO) so that 5 mcl added to the platelet rich plasma would yield the desired test concentration. Vehicle control trials were done and compared with aggregation induced in platelet rich plasma containing various concentrations of the test compounds. Dose response curves were thus obtained and Effective Concentration (EC50) values calculated.

solubility = assay type: physicochemical
[4] = Table I, read-out: cAMP PDE IC50 (m)
[5] = change from predose control, read-out: Ferret, Maximum % Change, VCF (ventricular contractile force)
[6] = read-out: Ferret, Maximum % Change, HR (heart rate)
[7] = read-out: Ferret, Maximum % Change, MAP (mean arterial blood pressure)

T1 sequence (Q14432 whole entry): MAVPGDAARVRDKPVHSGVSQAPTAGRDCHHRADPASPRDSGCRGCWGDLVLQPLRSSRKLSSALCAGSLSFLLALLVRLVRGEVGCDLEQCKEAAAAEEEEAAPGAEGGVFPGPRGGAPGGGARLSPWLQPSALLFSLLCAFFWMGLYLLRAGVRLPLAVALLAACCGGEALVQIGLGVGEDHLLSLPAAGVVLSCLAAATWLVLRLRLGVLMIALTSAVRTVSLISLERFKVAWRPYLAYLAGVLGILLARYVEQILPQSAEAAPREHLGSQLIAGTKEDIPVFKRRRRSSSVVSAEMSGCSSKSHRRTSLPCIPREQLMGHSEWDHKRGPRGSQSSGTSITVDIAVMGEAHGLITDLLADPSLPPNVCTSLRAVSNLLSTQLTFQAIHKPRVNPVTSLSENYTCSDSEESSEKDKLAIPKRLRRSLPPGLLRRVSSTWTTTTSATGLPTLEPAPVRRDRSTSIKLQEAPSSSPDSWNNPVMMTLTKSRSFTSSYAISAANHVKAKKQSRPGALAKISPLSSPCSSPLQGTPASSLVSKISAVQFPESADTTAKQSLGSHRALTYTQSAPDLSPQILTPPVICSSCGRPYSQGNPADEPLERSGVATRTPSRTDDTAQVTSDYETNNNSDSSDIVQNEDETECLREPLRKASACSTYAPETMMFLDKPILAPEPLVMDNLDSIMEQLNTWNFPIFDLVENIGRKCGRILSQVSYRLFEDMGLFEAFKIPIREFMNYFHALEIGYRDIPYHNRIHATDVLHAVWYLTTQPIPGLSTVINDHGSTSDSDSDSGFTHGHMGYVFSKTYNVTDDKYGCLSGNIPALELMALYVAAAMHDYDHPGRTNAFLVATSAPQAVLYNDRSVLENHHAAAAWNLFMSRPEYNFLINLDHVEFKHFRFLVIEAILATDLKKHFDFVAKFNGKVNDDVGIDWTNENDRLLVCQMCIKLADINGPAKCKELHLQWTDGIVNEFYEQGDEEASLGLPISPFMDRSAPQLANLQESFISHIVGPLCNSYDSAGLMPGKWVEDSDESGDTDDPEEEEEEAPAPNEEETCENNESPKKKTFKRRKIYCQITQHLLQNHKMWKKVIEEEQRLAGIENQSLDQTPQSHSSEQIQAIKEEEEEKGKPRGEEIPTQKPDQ

| SMILES | IC50 [1, 4] [nM] | change in vivo at 3 mg/kg (ferrets; [5]) [%] | change in vivo at 3 mg/kg (ferrets; [6]) [%] | change in vivo at 3 mg/kg (ferrets; [7]) [%] | inhibition in vivo at 0.1 mg/kg ([2]; rabbit) [%] | IC50 ([1]; read-out: IC50, cAMP phosphodiesterase inhibition) [nM] | EC50 [3] [nM] | increase in RVCF (right ventricular contractile force) (ferrets; 3 mg/kg, ferret) [%] | activity in Biolaser Model relative to Table I compounds ([2]; 0.3 mg/kg body weight, compared with Table I compounds) | inhibition in Biolaser Model ([2]; 0.3 mg/kg body weight, rabbit) [%] | solubility (solubility; 2.0n hcl, read-out: solubility in 2.0N HCl) [µg/mL] | solubility (solubility; water, read-out: solubility in water) [µg/mL] |
| --- | --- | --- | --- | --- | --- | --- | --- | --- | --- | --- | --- | --- |
| O=C(CCCOc1ccc2nc3[nH]c(=O)[nH]c3cc2c1)N1CCN(Cc2ccc(F)cc2)CC1 [Example 13] | 2 | 32 | 21 | -11 | 46 |  |  |  |  |  |  |  |
| O=C(CCCOc1ccc2nc3[nH]c(=O)[nH]c3cc2c1)N1CCN(C2CCCCCC2)CC1 [Example 25, 1-Cycloheptanyl-4-[4-(2,3-dihydro-2-oxo-1H-imidazo[4,5-b]quinolin-7-yloxy)-1-oxobutyl]piperazine] | 0.9 | 26 | 17 | -12 | 49 |  |  |  |  |  |  |  |
| O=C(CCCOc1ccc2nc3[nH]c(=O)[nH]c3cc2c1)N1CCN(Cc2ccccc2)CC1 [Example 11] | 0.7 | 28 | 31 | -42 | 50 |  |  |  |  |  |  |  |
| O=C(CCCOc1ccc2nc3[nH]c(=O)[nH]c3cc2c1)N1CCN(CC2CCCCC2)CC1 [Example 22, 1-(Cyclohexylmethyl)-4-[4-(2,3-dihydro-2-oxo-1H-imidazo[4,5-b]quinolin-7-yloxy)-1-oxybutyl]piperazine] |  | 27 | 29 | -15 | 59 | 0.4 | 910 |  |  |  |  |  |
| COc1ccc(CN2CCN(C(=O)CCCOc3ccc4nc5[nH]c(=O)[nH]c5cc4c3)CC2)cc1 [Example 15] | 3 | 24 | 17 | -23 | 48 |  |  |  |  |  |  |  |
| O=C(CCCOc1ccc2nc3[nH]c(=O)[nH]c3cc2c1)N1CCN(Cc2cccs2)CC1 [Example 16, 1-[4-(2,3-Dihydro-2-oxo-1H-imidazo[4,5-b]quinolin-7-yloxy)-1-oxobutyl]-4-(2-thienylmethyl)piperazine] | 0.7 | 30 | 16 | -27 | 49 |  |  |  |  |  |  |  |
| O=C(CCCOc1ccc2nc3[nH]c(=O)[nH]c3cc2c1)N1CCN(c2ccccn2)CC1 [Example 19] | 5 | -8 | 12 | -15 | 47 |  |  |  |  |  |  |  |
| Cc1[nH]c(=O)c(C#N)cc1-c1ccncc1 [milrinone, reference compound] |  |  |  |  |  |  |  | 52 |  |  |  |  |
| O=C(CCCOc1ccc2nc3[nH]c(=O)[nH]c3cc2c1)N1CCN(Cc2cccc(C(F)(F)F)c2)CC1 [Example 14, 1-[4-(2,3-Dihydro-2-oxo-1H-imidazo[4,5-b]quinolin-7-(yloxy)-1-oxobutyl]-4-[[3-trifluormethyl)phenyl-]methyl]piperazine] | 9 | 3 | 12 | -16 | 49 |  |  |  |  |  |  |  |
| O=C(CCCOc1ccc2nc3[nH]c(=O)[nH]c3cc2c1)N1CCN(c2ccccc2)CC1 [1-[4-[(2,3-dihydro-2-oxo-1H-imidazo[4,5-b]-quinolin-7-yl)oxy]-1-oxobutyl]-4-phenylpiperazine, reference compound] |  |  |  |  |  |  |  |  | markedly less active than Table I compounds | 22 | < 10 | < 10 |
